Experimental data reported in ChEMBL document CHEMBL1201862, “PubChem BioAssay data set” (2004).
Counter-ions that a name gives are not always drawn.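 Compound exposure: 48 hours, 5 concentrations, 96-well plates. The concentration for 50% growth inhibition is given as GI50.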 Active and inactive are the calls of the source. Cut-off read from the data, not from the text of the source: active = GI50 up to about 1.1 µM and inactive = higher.

How the values were obtained:
Assay in all cases: DTP human tumour cell line panel, 48 h
HL-60 = test system: HL-60
LXFL 529 = test system: LXFL 529
U-251 = test system: U-251
COLO 205 = test system: COLO 205
UACC-62 = test system: UACC-62
NCI-H23 = test system: NCI-H23
RPMI-8226 = test system: RPMI-8226
IGROV-1 = test system: IGROV-1
UO-31 = test system: UO-31
EKVX = test system: EKVX
SK-MEL-5 = test system: SK-MEL-5
SF-295 = test system: SF-295
SNB-75 = test system: SNB-75
CCRF-CEM = test system: CCRF-CEM
HCC 2998 = test system: HCC 2998
SF-268 = test system: SF-268
M14 = test system: M14
PC-3 = test system: PC-3
Hs-578T = test system: Hs-578T
RXF 393 = test system: RXF 393

Row | SMILES | GI50 (HL-60) | GI50 (LXFL 529) | GI50 (U-251) | GI50 (COLO 205) | GI50 (UACC-62) | GI50 (NCI-H23) | GI50 (RPMI-8226) | GI50 (IGROV-1) | GI50 (UO-31) | GI50 (EKVX) | GI50 (SK-MEL-5) | GI50 (SF-295) | GI50 (SNB-75) | GI50 (CCRF-CEM) | GI50 (HCC 2998) | GI50 (SF-268) | GI50 (M14) | GI50 (PC-3) | GI50 (Hs-578T) | GI50 (RXF 393)
1 | COc1cc(C2C(Cl)C(=O)N2NC(=O)c2ccc(N)cc2)cc(Br)c1O (configuration not stated) | 8.75 µM (inactive) | 3.15 µM (inactive) | 3.31 µM (inactive) | 18.7 µM (inactive) | 14 µM (inactive) | 16.4 µM (inactive) | 24.4 µM (inactive) | 19.7 µM (inactive) | 17.8 µM (inactive) | 13.2 µM (inactive) | 17.9 µM (inactive) | 14.6 µM (inactive) | 17.2 µM (inactive) | 2.92 µM (inactive) | 12 µM (inactive) | 4.19 µM (inactive) | 15.5 µM (inactive) | – | – | –
2 | COc1c(C)c2c(c(C)c1Cl)Oc1c(C=O)c(O)c(Cl)c(C)c1C(=O)O2 | 22.3 µM (inactive) | 28.1 µM (inactive) | 20.3 µM (inactive) | 22.8 µM (inactive) | 21.6 µM (inactive) | 21.1 µM (inactive) | 32.6 µM (inactive) | 31.6 µM (inactive) | – | 17.9 µM (inactive) | 95.7 µM (inactive) | 30.9 µM (inactive) | 23.4 µM (inactive) | 20.3 µM (inactive) | 28.1 µM (inactive) | 27.8 µM (inactive) | 20.9 µM (inactive) | – | – | –
3 | BrCCC[P+](c1ccccc1)(c1ccccc1)c1ccccc1 | 1.18 µM (inactive) | – | 6.32 µM (inactive) | 1.61 µM (inactive) | 14 µM (inactive) | 12.3 µM (inactive) | 0.615 µM (active) | 5.45 µM (inactive) | > 100 µM (inactive) | 14.4 µM (inactive) | 6.27 µM (inactive) | 40.8 µM (inactive) | 12 µM (inactive) | > 30.5 µM (inactive) | > 68.4 µM (inactive) | 16.7 µM (inactive) | 11.8 µM (inactive) | 5.65 µM (inactive) | 15.5 µM (inactive) | 2.89 µM (inactive)
4 | O=C(O)COc1ccc2c3c1C(=O)CCC3CO2 (configuration not stated) | > 100 µM (inactive) | > 100 µM (inactive) | > 100 µM (inactive) | > 100 µM (inactive) | > 100 µM (inactive) | > 100 µM (inactive) | > 100 µM (inactive) | > 100 µM (inactive) | > 100 µM (inactive) | > 100 µM (inactive) | > 100 µM (inactive) | > 100 µM (inactive) | – | > 100 µM (inactive) | > 100 µM (inactive) | > 100 µM (inactive) | > 100 µM (inactive) | – | – | –
5 | NS(=O)(=O)c1ccc(NCc2cnc3ccccc3n2)cc1 | > 100 µM (inactive) | – | > 100 µM (inactive) | > 100 µM (inactive) | > 100 µM (inactive) | > 100 µM (inactive) | > 100 µM (inactive) | > 100 µM (inactive) | > 100 µM (inactive) | > 100 µM (inactive) | > 100 µM (inactive) | > 100 µM (inactive) | > 100 µM (inactive) | > 100 µM (inactive) | > 100 µM (inactive) | > 100 µM (inactive) | > 100 µM (inactive) | > 100 µM (inactive) | > 100 µM (inactive) | > 100 µM (inactive)
6 | CC1(C)CN=C(Nc2ccc(F)c(F)c2)S1 | > 100 µM (inactive) | – | > 100 µM (inactive) | > 100 µM (inactive) | > 100 µM (inactive) | > 100 µM (inactive) | > 100 µM (inactive) | > 100 µM (inactive) | > 100 µM (inactive) | > 100 µM (inactive) | > 100 µM (inactive) | > 100 µM (inactive) | > 100 µM (inactive) | > 100 µM (inactive) | > 100 µM (inactive) | > 100 µM (inactive) | > 100 µM (inactive) | > 100 µM (inactive) | > 100 µM (inactive) | > 100 µM (inactive)
7 | Nc1nc2c(C(=O)O)c3ccc([N+](=O)[O-])cc3c(=O)n2c2ccccc12 | 32.1 µM (inactive) | – | 27.2 µM (inactive) | 34.8 µM (inactive) | 28.1 µM (inactive) | 22.6 µM (inactive) | 27.5 µM (inactive) | 26.9 µM (inactive) | 29.8 µM (inactive) | 27.9 µM (inactive) | 24.7 µM (inactive) | 29.1 µM (inactive) | 3.44 µM (inactive) | 42.1 µM (inactive) | 32.3 µM (inactive) | 33.8 µM (inactive) | 21.4 µM (inactive) | 24.5 µM (inactive) | 23.8 µM (inactive) | 14.5 µM (inactive)
8 | CCN1CSC(=S)N(CC)C1 | 15 µM (inactive) | – | 50.8 µM (inactive) | 54.8 µM (inactive) | 38.8 µM (inactive) | 48.3 µM (inactive) | 50.9 µM (inactive) | 75.3 µM (inactive) | > 100 µM (inactive) | > 100 µM (inactive) | 76.9 µM (inactive) | > 100 µM (inactive) | 44.2 µM (inactive) | 71.6 µM (inactive) | > 100 µM (inactive) | > 100 µM (inactive) | 50.6 µM (inactive) | > 100 µM (inactive) | > 100 µM (inactive) | > 100 µM (inactive)
9 | COc1ccc(C2=CC(C(C)=C(C(N)=O)C(N)=O)C=C(c3ccc(Br)cc3)C2)c(OC)c1 (configuration not stated) | > 100 µM (inactive) | – | > 100 µM (inactive) | > 100 µM (inactive) | > 100 µM (inactive) | > 100 µM (inactive) | > 100 µM (inactive) | 94.6 µM (inactive) | 39.9 µM (inactive) | 44.2 µM (inactive) | > 100 µM (inactive) | > 100 µM (inactive) | 66.1 µM (inactive) | > 100 µM (inactive) | > 100 µM (inactive) | > 100 µM (inactive) | > 100 µM (inactive) | 50.5 µM (inactive) | 63.1 µM (inactive) | > 100 µM (inactive)
10 | CC[C@@H]1C(=O)OC[C@@H]1Cc1cncn1C [PILOCARPINE HYDROCHLORIDE] | > 100 µM (inactive) | – | > 100 µM (inactive) | > 100 µM (inactive) | > 100 µM (inactive) | > 100 µM (inactive) | > 100 µM (inactive) | > 100 µM (inactive) | > 100 µM (inactive) | > 100 µM (inactive) | > 100 µM (inactive) | > 100 µM (inactive) | > 100 µM (inactive) | > 100 µM (inactive) | > 100 µM (inactive) | > 100 µM (inactive) | > 100 µM (inactive) | > 100 µM (inactive) | > 100 µM (inactive) | > 100 µM (inactive)
11 | CN(CCCCN1CCCC1)CCCN(C)C(=O)Cc1ccc(Cl)c(Cl)c1 | 15.3 µM (inactive) | – | 16 µM (inactive) | 11.9 µM (inactive) | 4.33 µM (inactive) | 18 µM (inactive) | 5.85 µM (inactive) | 20.2 µM (inactive) | 1.95 µM (inactive) | 19.5 µM (inactive) | 9.98 µM (inactive) | 19.3 µM (inactive) | 20.7 µM (inactive) | 4.74 µM (inactive) | 3.62 µM (inactive) | 26.7 µM (inactive) | 17 µM (inactive) | 19.1 µM (inactive) | 20.6 µM (inactive) | 12.7 µM (inactive)
12 | O=C1CCCC(=O)N1n1c(Cc2ccc(Cl)cc2)n[nH]c1=O | > 100 µM (inactive) | – | > 100 µM (inactive) | > 100 µM (inactive) | > 100 µM (inactive) | > 100 µM (inactive) | > 100 µM (inactive) | > 100 µM (inactive) | > 100 µM (inactive) | > 100 µM (inactive) | > 100 µM (inactive) | > 100 µM (inactive) | > 100 µM (inactive) | > 100 µM (inactive) | > 100 µM (inactive) | > 100 µM (inactive) | > 100 µM (inactive) | > 100 µM (inactive) | > 100 µM (inactive) | > 100 µM (inactive)
13 | C[C@H](C(=O)C12CC3CC(CC(C3)C1)C2)[C@H](O)c1ccccc1 | 23.1 µM (inactive) | 43.8 µM (inactive) | – | 15 µM (inactive) | 28.4 µM (inactive) | 36.7 µM (inactive) | 36 µM (inactive) | 40 µM (inactive) | 29 µM (inactive) | 43.7 µM (inactive) | 17.6 µM (inactive) | 31.9 µM (inactive) | 27 µM (inactive) | 32.5 µM (inactive) | – | 15.2 µM (inactive) | 29.6 µM (inactive) | – | – | 20.1 µM (inactive)
14 | Cn1c2c(c3ccccc31)CCN(CCCCN1CCc3c(n(C)c4ccccc34)C1=O)C2 | > 100 µM (inactive) | > 100 µM (inactive) | > 100 µM (inactive) | > 100 µM (inactive) | > 100 µM (inactive) | > 100 µM (inactive) | > 100 µM (inactive) | > 100 µM (inactive) | > 100 µM (inactive) | > 100 µM (inactive) | > 100 µM (inactive) | > 100 µM (inactive) | 88.1 µM (inactive) | > 100 µM (inactive) | – | > 100 µM (inactive) | > 100 µM (inactive) | – | – | > 100 µM (inactive)
15 | Cc1ccc(S(=O)(=O)Oc2nc3ccccc3nc2OS(=O)(=O)c2ccc(C)cc2)cc1 | 32.3 µM (inactive) | – | > 100 µM (inactive) | > 100 µM (inactive) | > 100 µM (inactive) | > 100 µM (inactive) | 40.9 µM (inactive) | > 100 µM (inactive) | > 100 µM (inactive) | > 100 µM (inactive) | 28.5 µM (inactive) | > 100 µM (inactive) | > 100 µM (inactive) | 31.6 µM (inactive) | > 100 µM (inactive) | > 100 µM (inactive) | 33.7 µM (inactive) | > 100 µM (inactive) | > 100 µM (inactive) | > 100 µM (inactive)
